Results on one molecule are retold here after PMC5341070, “Small molecule inhibitors block Gas6-inducible TAM activation and tumorigenicity” (Scientific Reports, 2017).

The target of the assay is T1, Axl (Homo sapiens, UniProt P30530+Q14393).
T1 construct: extracellular and trans-membrane domain of Axl fused to IFN-γR1 intracellular domain; with Gas6
Description: Gas6-induced hAxl/IFN-γR1 CHO reporter (pSTAT1) inhibition; sAxl-Gas6 pull-down partially inhibited. It is filed as cell-based.

T1 sequence (P30530 26-472 limits assumed): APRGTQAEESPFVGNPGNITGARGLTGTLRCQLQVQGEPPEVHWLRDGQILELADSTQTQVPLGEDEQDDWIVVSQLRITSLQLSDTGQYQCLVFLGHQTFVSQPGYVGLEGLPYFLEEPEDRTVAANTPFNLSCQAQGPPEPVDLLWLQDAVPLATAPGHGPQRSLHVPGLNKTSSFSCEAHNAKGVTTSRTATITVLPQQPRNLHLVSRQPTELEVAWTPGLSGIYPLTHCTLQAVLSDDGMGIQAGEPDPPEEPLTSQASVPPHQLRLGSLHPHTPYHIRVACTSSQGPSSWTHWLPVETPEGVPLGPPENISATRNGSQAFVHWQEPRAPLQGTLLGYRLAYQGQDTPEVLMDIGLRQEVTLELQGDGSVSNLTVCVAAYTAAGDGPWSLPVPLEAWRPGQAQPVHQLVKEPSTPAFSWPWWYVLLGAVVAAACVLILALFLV
T1 sequence (Q14393 31-678): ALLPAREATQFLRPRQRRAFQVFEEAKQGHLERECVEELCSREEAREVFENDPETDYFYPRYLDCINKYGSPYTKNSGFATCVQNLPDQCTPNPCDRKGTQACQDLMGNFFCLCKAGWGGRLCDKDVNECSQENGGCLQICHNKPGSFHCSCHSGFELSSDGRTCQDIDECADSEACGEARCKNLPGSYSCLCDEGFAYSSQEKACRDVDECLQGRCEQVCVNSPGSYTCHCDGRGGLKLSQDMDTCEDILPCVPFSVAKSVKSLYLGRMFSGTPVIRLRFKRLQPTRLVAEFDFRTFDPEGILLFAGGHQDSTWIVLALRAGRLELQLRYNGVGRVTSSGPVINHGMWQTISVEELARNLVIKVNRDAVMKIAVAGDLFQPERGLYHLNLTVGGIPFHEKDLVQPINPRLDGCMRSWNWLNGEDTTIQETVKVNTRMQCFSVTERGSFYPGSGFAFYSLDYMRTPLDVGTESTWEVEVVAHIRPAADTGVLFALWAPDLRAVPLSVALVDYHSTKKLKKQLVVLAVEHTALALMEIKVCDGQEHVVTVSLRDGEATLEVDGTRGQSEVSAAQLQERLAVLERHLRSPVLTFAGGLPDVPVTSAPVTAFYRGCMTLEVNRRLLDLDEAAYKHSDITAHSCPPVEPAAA

On to `Cc1noc(C)c1CSc1ccccc1C(=O)N1CCN(c2cccc(C(F)(F)F)c2)CC1` [RU-302], for which the IC50 entry is “low micromolar”.
